The assay relates to Mycobacteria including drug resistant strains, in particular Mycobacterium tuberculosis, M. bovis, M. avium, M. leprae and M. marinum. The format is cell-based.

In the case of `COc1nc2ccc(Br)cc2cc1[C@@H](c1ccccc1)[C@@](O)(CCN(C)C)c1cccc2ccccc12.O=C(O)/C=C/C(=O)O` [Present fumarate salt, (alpha S, beta R)-6-bromo-alpha-[2-(dimethylamino)ethyl]-2-methoxy-alpha-1-naphthalenyl-beta-phenyl-3-quinolineethanol (2E)-2-butenedioate (1:1)], the “activity against Mycobacteria” value is listed as “shows activity”.

Values taken from patent US8546428B2 (priority 2006, dated 2013).
